Measured values published in ChEMBL document CHEMBL4417629, “Inhibitors of RAD52 Recombination Protein and Methods Using Same” (2018).
Where a chain is given by its changes, count along the chain named. The source made the active and inactive calls. The calls are words filed in the database; no cut-off is given here.

Tests used:
[1] = biological target: T1, DNA repair protein RAD51 homolog 1 (Homo sapiens) (UniProt Q06609); assay: Inhibition of RAD51 (unknown origin) assessed as inhibition of DNA pairing by measuring D-loop formation between [32P]-ssDNA and homologous supercoiled pUC19 DNA at 10 times RAD52 IC50 incubated for 15 mins by gel electrophoresis method relative to control
T1 sequence (whole entry): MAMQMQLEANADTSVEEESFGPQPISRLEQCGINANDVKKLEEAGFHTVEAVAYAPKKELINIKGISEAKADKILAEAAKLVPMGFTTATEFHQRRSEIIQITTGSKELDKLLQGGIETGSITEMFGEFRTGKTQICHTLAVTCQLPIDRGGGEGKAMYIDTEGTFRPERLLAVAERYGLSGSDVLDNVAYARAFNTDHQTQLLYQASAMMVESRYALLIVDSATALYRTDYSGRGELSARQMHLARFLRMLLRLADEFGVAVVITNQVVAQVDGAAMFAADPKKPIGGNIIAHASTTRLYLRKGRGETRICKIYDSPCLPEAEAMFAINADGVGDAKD

[2] = biological target: T2, DNA repair protein RAD52 homolog (Homo sapiens) (UniProt P43351); assay: Inhibition of RAD52 (unknown origin) assessed as inhibition of DNA pairing using [32P]-ssDNA by measuring D-loop formation incubated for 15 mins by gel electrophoresis method
T2 sequence (whole entry): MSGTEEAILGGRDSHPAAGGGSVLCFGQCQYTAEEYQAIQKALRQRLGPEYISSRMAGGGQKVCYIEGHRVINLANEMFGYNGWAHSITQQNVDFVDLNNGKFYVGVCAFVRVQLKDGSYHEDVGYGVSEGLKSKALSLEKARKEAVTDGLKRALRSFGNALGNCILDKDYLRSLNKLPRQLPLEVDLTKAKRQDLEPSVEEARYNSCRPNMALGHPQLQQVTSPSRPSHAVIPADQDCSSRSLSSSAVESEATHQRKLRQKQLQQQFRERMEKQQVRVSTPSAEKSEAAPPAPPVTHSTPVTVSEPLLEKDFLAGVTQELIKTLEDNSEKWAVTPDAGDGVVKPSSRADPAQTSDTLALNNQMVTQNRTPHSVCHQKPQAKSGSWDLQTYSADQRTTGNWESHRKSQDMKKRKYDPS

Homo sapiens [3] = organism: Homo sapiens; assay: Growth inhibition of BRCA1-deficient human UWB1.289 cells at 2.5 to 10 uM following media refreshment every 3 days and measured on day 10 by CellTiter-Glo assay; format: functional
CAPAN-1 = assay: Growth inhibition of BRCA2-deficient human Capan1 cells at 2.5 to 10 uM following media refreshment every 3 days and measured on day 10 by CellTiter-Glo assay; format: functional, cell-based
[4] = biological target: T1, DNA repair protein RAD51 homolog 1 (Homo sapiens); assay: Inhibition of RAD51 (unknown origin) assessed as inhibition of DNA pairing by measuring D-loop formation between [32P]-ssDNA and homologous supercoiled pUC19 DNA at 30 uM incubated for 15 mins by gel electrophoresis method relative to control
[5] = biological target: T2, DNA repair protein RAD52 homolog (Homo sapiens); assay: Inhibition of RAD52 in human U2OS cells co-expressing SA-GFP assessed as reduction in single strand DNA annealing at 30 uM incubated for 48 hrs by GFP+ positive cells detection based flow cytometry relative to control; format: cell-based
U2OS [6] = assay: Effect on homology dependent recombination in human U2OS cells co-expressing DR-GFP assessed as measuring green fluorescence at 5 uM flow cytometry (reference value: 7.13%); format: functional
[7] = biological target: T2, DNA repair protein RAD52 homolog (Homo sapiens); assay: Inhibition of RAD52 in human U2OS cells co-expressing SSA-GFP assessed as inhibition of repair of I-Scel-induced double stranded breaks by measuring green fluorescence at 10 uM by flow cytometry (reference value: 7.1%); format: cell-based; parameters: scale not given: the % may be the effect or the level left
[8] = biological target: T3, DNA repair protein RAD51 homolog 1 (Mus musculus) (UniProt Q08297); assay: Inhibition of RAD51 in BCR-ABL1-positive and BRCA1-proficient mouse 32Dcl3 cells assessed as reduction in cisplatin-induced RAD51 foci formation by AlexaFluor-594 staining based inverted fluorescence microscopy
T3 sequence (whole entry): T1 sequence (whole entry) with N10S, F46Y, A76T, A194G

[9] = biological target: T2, DNA repair protein RAD52 homolog (Homo sapiens); assay: (§1) Inhibition of RAD52 (unknown origin) expressed in BCR-ABL1-positive and BRCA1-deficient mouse 32Dcl3 cells expressing GFP-RAD52 assessed as cisplatin-induced RAD52 foci formation at 2.5 uM by AlexaFluor-594 staining based inverted fluorescence microscopy (reference value: 38.7 +/- 10%); format: cell-based; parameters: scale not given: the % may be the effect or the level left
Homo sapiens [10] = organism: Homo sapiens; assay: Growth inhibition of BRCA1-proficient human CML cells at 2.5 to 10 uM treated with compound on days 0 and 2 and measured on day 4 by trypan blue staining based assay; format: functional
[11] = biological target: T2, DNA repair protein RAD52 homolog (Homo sapiens); assay: Inhibition of RAD52 in human U2OS cells co-expressing SA-GFP assessed as reduction in single strand DNA annealing incubated for 48 hrs by GFP+ positive cells detection based flow cytometry; format: cell-based
U2OS [12] = assay: Effect on homology dependent recombination in human U2OS cells co-expressing DR-GFP at 10 to 30 uM flow cytometry; format: functional, cell-based
U2OS [13] = assay: Effect on homology dependent recombination in human U2OS cells co-expressing DR-GFP assessed as measuring green fluorescence at 30 uM flow cytometry (reference value: 7.13%); format: functional
[14] = biological target: T2, DNA repair protein RAD52 homolog (Homo sapiens); assay: Inhibition of RAD52 in human U2OS cells co-expressing SSA-GFP assessed as inhibition of repair of I-Scel-induced double stranded breaks by measuring green fluorescence at 5 uM by flow cytometry (reference value: 7.1%); format: cell-based; parameters: scale not given: the % may be the effect or the level left
[15] = biological target: T2, DNA repair protein RAD52 homolog (Homo sapiens); assay: Inhibition of RAD52 (unknown origin) expressed in BCR-ABL1-positive and BRCA1-deficient mouse 32Dcl3 cells expressing GFP-RAD52 assessed as reduction in cisplatin-induced RAD52 foci formation at 2.5 uM by AlexaFluor-594 staining based inverted fluorescence microscopy relative to control; format: cell-based
[16] = biological target: T4, DNA repair protein RAD51 homolog 1 (Mus musculus, UniProt Q08297); assay: Induction of RAD51 foci formation in BCR-ABL1-positive and BRCA1-proficient mouse 32Dcl3 cells by AlexaFluor-594 staining based inverted fluorescence microscopy
T4 sequence (Q08297 whole entry): T1 sequence (whole entry) with N10S, F46Y, A76T, A194G

U2OS [17] = assay: Effect on homology dependent recombination in human U2OS cells co-expressing DR-GFP assessed as measuring green fluorescence at 15 uM flow cytometry (reference value: 7.13%); format: functional
[18] = biological target: T5, DNA repair protein RAD52 homolog (Homo sapiens, UniProt P43351); assay: Effect on RAD52 (unknown origin) expressed in BCR-ABL1-positive and BRCA1-deficient mouse 32Dcl3 cells expressing GFP-RAD52 assessed as induction of RAD52 foci formation by AlexaFluor-594 staining based inverted fluorescence microscopy; format: cell-based
T5 sequence (P43351 whole entry): T2 sequence (whole entry)

U2OS [19] = assay: Effect on GFP+ positive cells in human U2OS cells co-expressing pMX-GFP up to 30 uM incubated for 48 hrs by flow cytometry relative to control; format: ADME, cell-based
[20] = biological target: T2, DNA repair protein RAD52 homolog (Homo sapiens); assay: as §1, with “formation by measuring fraction of cell without foci” for “formation”, “48.4” for “38.7”, “6.2%)” for “10%)”; parameters: scale not given: the % may be the effect or the level left
Salmon testes DNA = assay: Binding affinity to salmon sperm DNA incubated for 20 mins by acridine orange displacement based fluorescence polarization assay; format: nucleic-acid assay; conditions: Salmonidae
[21] = biological target: T2, DNA repair protein RAD52 homolog (Homo sapiens); assay: Inhibition of RAD52 in human U2OS cells co-expressing SSA-GFP assessed as inhibition of repair of I-Scel-induced double stranded breaks by measuring green fluorescence at 15 uM by flow cytometry (reference value: 7.1%); format: cell-based; parameters: scale not given: the % may be the effect or the level left
U2OS [22] = assay: Effect on homology dependent recombination in human U2OS cells co-expressing DR-GFP assessed as measuring green fluorescence at 10 uM flow cytometry (reference value: 7.13%); format: functional
[23] = biological target: T2, DNA repair protein RAD52 homolog (Homo sapiens); assay: Inhibition of RAD52 in human U2OS cells co-expressing SSA-GFP assessed as inhibition of repair of I-Scel-induced double stranded breaks by measuring green fluorescence at 20 uM by flow cytometry (reference value: 7.1%); format: cell-based; parameters: scale not given: the % may be the effect or the level left
Homo sapiens [24] = organism: Homo sapiens; assay: Growth inhibition of BCR-ABL1-positive and BRCA1-deficient human CML cells at 2.5 to 10 uM treated with compound on days 0 and 2 and measured on day 4 by trypan blue staining based assay; format: functional
U2OS [25] = assay: Effect on homology dependent recombination in human U2OS cells co-expressing DR-GFP assessed as measuring green fluorescence at 20 uM flow cytometry (reference value: 7.13%); format: functional
U2OS [26] = assay: Effect on homology dependent recombination in human U2OS cells co-expressing pMX-GFP at 10 to 30 uM by flow cytometry; format: functional, cell-based
[27] = biological target: T2, DNA repair protein RAD52 homolog (Homo sapiens); assay: Inhibition of RAD52 in human U2OS cells co-expressing SSA-GFP assessed as inhibition of repair of I-Scel-induced double stranded breaks by measuring green fluorescence at 30 uM by flow cytometry (reference value: 7.1%); format: cell-based; parameters: scale not given: the % may be the effect or the level left

COc1ccc(OC)c(Nc2nc(NCCO)c3ccccc3n2)c1
inhibition [1]: 75.1%
inhibition [2]: Dose-dependent effect
growth inhibition (GI) (Homo sapiens [3]): Active
growth inhibition (GI) (CAPAN-1): Active
inhibition [4]: > 90%

CCCN(CCC)CCCNC(=S)Nc1ccc2nc(N3CCN(C)CC3)cc(C)c2c1
inhibition [1]: 111%
inhibition [2]: Dose-dependent effect
inhibition [4]: > 90%

CCN(CC)CCN=C(S)Nc1ccc2nc(N3CCN(C)CC3)cc(C)c2c1
fold change (FC) [5]: 3.4
Activity (U2OS [6]): 6.98%
Activity [7]: 6.28%
inhibition [8]: inactive
Activity [9]: 17%
growth inhibition (GI) (Homo sapiens [10]): inactive
inhibition [2]: Dose-dependent effect
growth inhibition (GI) (Homo sapiens [3]): Active
inhibition [11]: Dose-dependent effect
Activity (U2OS [12]): inactive
Activity (U2OS [13]): 5.18%
Activity [14]: 6.54%
fold change (FC) [15]: 2 to 2.5
Activity [16]: Non-Toxic
Activity (U2OS [17]): 5.7%
Activity [18]: Non-Toxic
growth inhibition (GI) (CAPAN-1): Active
inhibition [4]: > 90%
Activity (U2OS [19]): Non-Toxic
Activity [20]: 57.6%
Activity (Salmon testes DNA): inactive
Activity [21]: 4.08%
Activity (U2OS [22]): 6.68%
Activity [23]: 4.94%
growth inhibition (GI) (Homo sapiens [24]): Active
Activity (U2OS [25]): 6.2%
Activity (U2OS [26]): inactive
Activity [27]: 2.43%

Cc1ccc(C(=O)c2oc3ccc(Cl)cc3c2NC(=O)CN2CCN(C)CC2)cc1
inhibition [1]: 92.5%
inhibition [2]: Dose-dependent effect
inhibition [4]: > 90%

CCCCN(CC)CCNC(=O)c1cc2c(-c3ccc(Cl)cc3)nn(C)c2s1
inhibition [1]: 58.6%
inhibition [2]: Dose-dependent effect
growth inhibition (GI) (Homo sapiens [3]): Active
growth inhibition (GI) (CAPAN-1): Active
inhibition [4]: > 90%

COc1ccc(-c2nc(C(=O)NCCCN3CCOCC3)cc3c2[nH]c2ccccc23)cc1OC
inhibition [1]: 93.7%
inhibition [2]: Dose-dependent effect
inhibition [4]: > 90%

CCCCN(CC)CCCN=C(S)Nc1ccc2nc(N3CCN(C)CC3)cc(C)c2c1
inhibition [1]: 108%
inhibition [2]: Dose-dependent effect
inhibition [4]: > 90%

COc1ccccc1Nc1nc(NCCCO)c2ccccc2n1
inhibition [1]: 89.7%
inhibition [2]: Dose-dependent effect
growth inhibition (GI) (Homo sapiens [3]): Active
growth inhibition (GI) (CAPAN-1): Active
inhibition [4]: > 90%

CCN(CC)CCCN(Cc1cc2cc3c(cc2nc1O)OCO3)C(S)=NCCCN(C)C
inhibition [1]: 102%
inhibition [2]: Dose-dependent effect
inhibition [4]: > 90%

COc1ccc(OC)c(Nc2nc(NCCCO)c3ccccc3n2)c1
inhibition [1]: 75.6%
inhibition [2]: Dose-dependent effect
growth inhibition (GI) (Homo sapiens [3]): Active
fold change (FC) [15]: 2 to 2.5
growth inhibition (GI) (CAPAN-1): Active
inhibition [4]: > 90%
Activity [20]: 71.9%
Activity (Salmon testes DNA): inactive

Cc1cc(N2CCN(C)CC2)nc2ccc(NC(S)=NCCCN3CCN(C)CC3)cc12
inhibition [1]: 112%
inhibition [2]: Dose-dependent effect
inhibition [4]: > 90%

Cc1c(C(=O)Nc2ccc(S(=O)(=O)N(C)C3CCN(C)CC3)cc2)oc2c(Cl)cccc12
inhibition [1]: 97.5%
inhibition [2]: Dose-dependent effect
inhibition [4]: > 90%

CN1CCN(CCCNC(=O)c2cc3c(-c4ccc(Cl)cc4)nn(C)c3s2)CC1
inhibition [1]: 38.4%
inhibition [2]: Dose-dependent effect
inhibition [4]: > 90%

CCN1CCN(CCCNC(=S)Nc2ccc3nc(N(C)CCN)cc(C)c3c2)CC1
inhibition [1]: 111%
inhibition [2]: Dose-dependent effect
inhibition [4]: > 90%

Cn1nc(-c2ccc(Cl)cc2)c2cc(C(=O)NCCCN3CCCCCC3)sc21
inhibition [1]: 48.6%
inhibition [2]: Dose-dependent effect
growth inhibition (GI) (Homo sapiens [3]): Active
growth inhibition (GI) (CAPAN-1): Active
inhibition [4]: > 90%

Cc1ccc(-c2nc(C(=O)NCCCN3CCOCC3)cc3c2[nH]c2ccccc23)cc1
inhibition [1]: 73.6%
inhibition [2]: Dose-dependent effect
inhibition [4]: > 90%

Cn1nc(-c2ccc(Cl)cc2)c2cc(C(=O)NCCCN3CCCC3)sc21
inhibition [1]: 35.3%
inhibition [2]: Dose-dependent effect
inhibition [4]: > 90%
